Key:
[1] = 101.33 kPa, Liquid, Vibrating tube method
[2] = molar heat capacity at constant pressure; settings: 101.33 kPa, Liquid, Small sample (50 mg) DSC
[3] = refractive index (Na D-line) (dimensionless); settings: 101.33 kPa, Liquid, Standard Abbe refractometry
[4] = molar heat capacity at constant pressure; xn = mol fraction of the nth substance listed; settings: 308.15 K, 101 kPa, Liquid, Small sample (50 mg) DSC
[5] = excess molar enthalpy (molar enthalpy of mixing); xn = mol fraction of the nth substance listed; settings: 308.15 K, 101 kPa, Liquid, Flow calorimetry

CCOCCOCC [1,2-diethoxyethane]
Settings	mass density, [1] [kg/m3]	molar heat capacity at constant pressure, [2] [J/K/mol]	refractive index, [3]
288.15 K	–	254.5	–
293.15 K	–	255.3	–
298.15 K	835.11	257.5	1.3897
303.15 K	–	257.9	–
308.15 K	826.026	258.7	1.3853
313.15 K	–	259.5	–
318.15 K	–	261.2	–
323.15 K	–	262.9	–

CCOCCOCC [1,2-diethoxyethane] + C[S+](C)[O-]
Settings	excess molar enthalpy [kcal/mol]	molar heat capacity at constant pressure [J/K/mol]
[4], x2 = 0.0627	–	252.8
[4], x2 = 0.1317	–	246
[4], x2 = 0.1895	–	240.7
[4], x2 = 0.35	–	225
[4], x2 = 0.4563	–	214.4
[4], x2 = 0.5642	–	203.2
[4], x2 = 0.635	–	195.8
[4], x2 = 0.6718	–	191.9
[4], x2 = 0.7514	–	183.1
[4], x2 = 0.8274	–	174.7
[4], x2 = 0.8881	–	167.7
[4], x2 = 0.941	–	161.6
[5], x2 = 0.0765	0.0817	–
[5], x2 = 0.1421	0.127	–
[5], x2 = 0.199	0.155	–
[5], x2 = 0.2488	0.172	–
[5], x2 = 0.332	0.192	–
[5], x2 = 0.3986	0.201	–
[5], x2 = 0.4985	0.213	–
[5], x2 = 0.5698	0.211	–
[5], x2 = 0.6653	0.2	–
[5], x2 = 0.7489	0.174	–
[5], x2 = 0.799	0.152	–
[5], x2 = 0.8564	0.12	–
[5], x2 = 0.8883	0.0949	–
[5], x2 = 0.9227	0.07	–
[5], x2 = 0.9408	0.0586	–
[5], x2 = 0.9598	0.0382	–
[5], x2 = 0.9795	0.0198	–

COCCOC [1,2-dimethoxyethane]
Settings	mass density, [1] [kg/m3]	molar heat capacity at constant pressure, [2] [J/K/mol]	refractive index, [3]
288.15 K	–	188.7	–
293.15 K	–	189	–
298.15 K	861.9	191	1.3781
303.15 K	–	192.2	–
308.15 K	851.28	193.4	1.3726
313.15 K	–	194.5	–
318.15 K	–	195.8	–
323.15 K	–	196.9	–

COCCOC [1,2-dimethoxyethane] + C[S+](C)[O-]
Settings	excess molar enthalpy [kcal/mol]	molar heat capacity at constant pressure [J/K/mol]
[4], x2 = 0.1017	–	188.6
[4], x2 = 0.1471	–	186.5
[4], x2 = 0.2718	–	180.8
[4], x2 = 0.3811	–	175.8
[4], x2 = 0.4923	–	170.8
[4], x2 = 0.5507	–	168.3
[4], x2 = 0.5831	–	166.9
[4], x2 = 0.677	–	163.1
[4], x2 = 0.7788	–	159.4
[4], x2 = 0.8414	–	157.6
[4], x2 = 0.9315	–	155.5
[4], x2 = 0.9626	–	155
[5], x2 = 0.0577	0.0184	–
[5], x2 = 0.1092	0.0339	–
[5], x2 = 0.1553	0.0461	–
[5], x2 = 0.1969	0.0552	–
[5], x2 = 0.2689	0.0681	–
[5], x2 = 0.329	0.0779	–
[5], x2 = 0.4238	0.0863	–
[5], x2 = 0.495	0.0875	–
[5], x2 = 0.5953	0.087	–
[5], x2 = 0.6882	0.0808	–
[5], x2 = 0.7463	0.0755	–
[5], x2 = 0.8153	0.0633	–
[5], x2 = 0.8547	0.055	–
[5], x2 = 0.8982	0.0435	–
[5], x2 = 0.9217	0.0339	–
[5], x2 = 0.9464	0.0251	–
[5], x2 = 0.9725	0.0136	–

C1COCO1 [1,3-dioxolane]
Settings	mass density [kg/m3]	molar heat capacity at constant pressure [J/K/mol]	refractive index
[1], 298.15 K	1058.79	–	–
[1], 308.15 K	1046.4	–	–
[2], 288.15 K	–	118.8	–
[2], 293.15 K	–	120.3	–
[2], 298.15 K	–	121.7	–
[2], 303.15 K	–	123.3	–
[2], 308.15 K	–	124.4	–
[2], 313.15 K	–	125.3	–
[2], 318.15 K	–	126.8	–
[2], 323.15 K	–	128.1	–
[2], 328.15 K	–	129.5	–
[3], 298.15 K	–	–	1.3983
[3], 308.15 K	–	–	1.3934

C1COCO1 [1,3-dioxolane] + C[S+](C)[O-]
Settings	excess molar enthalpy [kcal/mol]	molar heat capacity at constant pressure [J/K/mol]
[4], x2 = 0.0532	–	125.2
[4], x2 = 0.1036	–	126.2
[4], x2 = 0.1897	–	128.2
[4], x2 = 0.3044	–	131.3
[4], x2 = 0.3922	–	133.9
[4], x2 = 0.5058	–	137.3
[4], x2 = 0.5455	–	138.5
[4], x2 = 0.5936	–	139.9
[4], x2 = 0.7053	–	143.4
[4], x2 = 0.781	–	145.9
[4], x2 = 0.9015	–	150.3
[4], x2 = 0.9431	–	152
[5], x2 = 0.0394	0.0146	–
[5], x2 = 0.0757	0.0256	–
[5], x2 = 0.1095	0.0335	–
[5], x2 = 0.1408	0.0409	–
[5], x2 = 0.1974	0.0478	–
[5], x2 = 0.2469	0.054	–
[5], x2 = 0.3297	0.0598	–
[5], x2 = 0.3959	0.0629	–
[5], x2 = 0.4959	0.0648	–
[5], x2 = 0.5961	0.0631	–
[5], x2 = 0.663	0.0609	–
[5], x2 = 0.7469	0.0562	–
[5], x2 = 0.7973	0.0519	–
[5], x2 = 0.8551	0.0428	–
[5], x2 = 0.8872	0.0354	–
[5], x2 = 0.9219	0.0268	–
[5], x2 = 0.9594	0.0155	–

C1COCCO1 [1,4-dioxane]
Settings	mass density [kg/m3]	molar heat capacity at constant pressure [J/K/mol]	refractive index
[1], 298.15 K	1027.96	–	–
[1], 308.15 K	1016.99	–	–
[2], 288.15 K	–	146.7	–
[2], 293.15 K	–	150	–
[2], 298.15 K	–	151	–
[2], 303.15 K	–	152.1	–
[2], 308.15 K	–	153.7	–
[2], 313.15 K	–	155.3	–
[2], 318.15 K	–	156.5	–
[2], 323.15 K	–	158.4	–
[2], 328.15 K	–	160.2	–
[2], 333.15 K	–	160.4	–
[3], 298.15 K	–	–	1.4202
[3], 308.15 K	–	–	1.4154
